pIC50: −log10 of the molar value. Activity calls are given as the source filed them.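 How the source made its calls: active means half-maximal inhibitory concentration below a set limit; inactive means the rest.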
Target: E3 ubiquitin-protein ligase SIAH1 (Homo sapiens) (UniProt Q8IUQ4)
Assay: Siah-1 peptide-binding antagonists, alternate label, dose response, artefact control for Siah-1 antagonist project, biochemical, fluorescence polarization, fluorescein-plectin (AID 2127)
Conditions: Siah-1/fluorescein-plectin binding

Row | SMILES | IC50 | pIC50
1 | COc1ccc(N=C2NC(=O)S/C2=C\c2ccc(N(C)C)cc2)cc1 | inactive | –
2 | Cc1ccc(S(=O)(=O)N2CCC(=O)N(C(COCc3cccc(C)c3)Cc3ccccc3)CC2)cc1 (stereo not given) | > 200 µM (inactive) | –
3 | CSc1ccccc1C(=O)NC(C)c1ccc(-n2ccnc2)cc1 (stereo not given) | > 200 µM (inactive) | –
4 | COc1ccc(C(C(=O)NCc2ccccc2)N(Cc2ccco2)C(=O)c2cnccn2)cc1 (stereo not given) | > 200 µM (inactive) | –
5 | c1ccc(C(c2ccccc2)N2CCN(C(c3ccccn3)c3nnnn3C3CCCC3)CC2)cc1 (stereo not given) | > 200 µM (inactive) | –
6 | O=C(O)c1cc(Cl)c(Cl)cc1C(=O)Nc1cccc2cccnc12 | > 200 µM (inactive) | –
7 | Cc1cc(C)c(C#N)c(Nc2ccccc2C)n1 | > 200 µM (inactive) | –
8 | CC(=O)Nc1ccc(N=Cc2c(O)c(C(=O)Nc3ccccc3)cc3ccccc23)cc1 | – | 5.30
9 | CCC(C)N1C(=O)/C(=C/c2c(NCCCOC(C)C)nc3c(C)cccn3c2=O)SC1=S (stereo not given) | – | 5.25
10 | CC(=O)c1ccc(S(=O)(=O)Nc2ccc(-c3ccc4nnc(C)n4n3)cc2)cc1 | > 200 µM (inactive) | –
11 | O=C(Nc1cc([N+](=O)[O-])ccc1N1CCOCC1)c1cccs1 | > 200 µM (inactive) | –
12 | O=C1C=C(NCc2ccccc2)c2ccccc2C1=O | > 200 µM (inactive) | –
13 | O=C(CCn1ccc2ccccc21)NC1CCCc2ccccc21 (stereo not given) | > 200 µM (inactive) | –
14 | Cc1cc(C)nc(N=Nc2c(O)n(Cc3ccc(Cl)cc3)c3ccccc23)n1 | > 200 µM (inactive) | –
15 | O=C(CSc1ccc(Br)c2cccc(Cl)c12)Nc1ccc(S(=O)(=O)Nc2nccs2)cc1 | > 200 µM (inactive) | –
16 | CN1C(=O)NC(c2ccccc2[N+](=O)[O-])C2=C1CCCC2=O (stereo not given) | – | 5.27
17 | O=S(=O)(Nc1cc2nc3ccccc3nc2n1Cc1ccccc1)c1ccc(Cl)cc1 | > 200 µM (inactive) | –
18 | O=c1[nH]n(-c2ccc([N+](=O)[O-])cc2)c(=O)c2ccccc12 | > 200 µM (inactive) | –
19 | O=C(Cn1cnc2scc(-c3ccccc3)c2c1=O)NCc1ccco1 | > 200 µM (inactive) | –
20 | Nc1ccc(S(=O)(=O)Nc2ccc(S(N)(=O)=O)cc2)cc1 | > 200 µM (inactive) | –
21 | CC[n+]1c(/C=C/N(C)c2ccccc2)sc2ccc(Cl)cc21 | > 200 µM (inactive) | –
22 | O=C(NCc1ccc(Cl)cc1)c1cc(-c2cccs2)on1 | > 200 µM (inactive) | –
23 | COc1ccc(CCNC(=O)CCC(=O)N2CCOc3ccc(C)cc32)cc1OC | > 200 µM (inactive) | –
24 | Cc1c(C(=O)O)sc2nc(CSc3ncc(C(F)(F)F)cc3Cl)[nH]c(=O)c12 | > 200 µM (inactive) | –

Row | SMILES | IC50 | pIC50
25 | CCN(CC)c1ccc(C=N/C(C#N)=C(\N)C#N)cc1 | > 200 µM (inactive) | –
26 | CC1CCN(S(=O)(=O)c2ccc3c(c2)c(=O)c(C(=O)NCc2ccccc2Cl)cn3C)CC1 | > 200 µM (inactive) | –
27 | COC(=O)C1C=C2c3cccc4[nH]cc(c34)CC2N(C)C1 (stereo not given) | – | 5.21
28 | COC(=O)c1c(C(=O)OC)c2cccc3cc(-c4ccccc4)c4ccc1c4n32 | inactive | –
29 | COc1cccc2cc(C(=O)N3CCc4ccccc43)c(=O)oc12 | > 200 µM (inactive) | –
30 | CC(C)(C)c1cc(-c2csc(Nc3ccccc3)[n+]2Cc2ccc(C(=O)O)cc2)cc(C(C)(C)C)c1O | > 200 µM (inactive) | –
31 | CC1(C)Cc2c(sc(/N=C/N3CCCCCC3)c2C#N)C(C)(C)N1 | > 200 µM (inactive) | –
32 | O=C(Nc1ccc(S(=O)(=O)N2CCOCC2)cc1)c1ccc(=O)[nH]c1 | > 200 µM (inactive) | –
33 | COc1cc(/C=C2/SC(=S)N(Cc3ccccc3)C2=O)cc(Cl)c1O | > 200 µM (inactive) | –
34 | Cc1ccc(OCCCN2CCOCC2)cc1 | > 200 µM (inactive) | –
35 | C[C@]12CCC3C(CC=C4C[C@@H](O)CC[C@@]43C)C1CCC2[C@]1(C)CCC(=O)O1 (stereo not given in full) | > 200 µM (inactive) | –
36 | O=C(Nc1ccccc1N1CCCCC1)c1ccc(-c2cccc(Cl)c2)o1 | > 200 µM (inactive) | –
37 | Cc1coc2c(C)c3oc(=O)c(CCC(=O)N[C@@H](C)C(=O)N[C@@H](Cc4ccccc4)C(=O)O)c(C)c3cc12 | > 200 µM (inactive) | –
38 | CCCCn1c(NS(=O)(=O)c2ccccc2)c(S(=O)(=O)c2ccc(C)cc2)c2nc3ccccc3nc21 | > 200 µM (inactive) | –
39 | O=C(Nc1ccc(Br)cc1)c1ccc(N2C(=O)C3CC=CCC3C2=O)cc1 (stereo not given) | > 200 µM (inactive) | –
40 | Cc1cc(Cl)ccc1NC(=O)CN1CCC(C(O)(c2ccccc2)c2ccccc2)CC1 | > 200 µM (inactive) | –
41 | O=C(N/N=C/c1cccc(Br)c1)c1ccc(Br)cc1 | > 200 µM (inactive) | –
42 | CS(=O)(=O)N1CCN(c2ccc([N+](=O)[O-])c(SCc3ccco3)c2)CC1 | > 200 µM (inactive) | –
43 | CN1/C(=C\C=C\C2=[N+](C)c3ccc4ccccc4c3C2(C)C)C(C)(C)c2ccccc21 | > 200 µM (inactive) | –
44 | CC12CCC(C(=O)NCc3ccc(Cl)cc3)(OC1=O)C2(C)C (stereo not given) | > 200 µM (inactive) | –
45 | O=C1CCCC(O)=C1N=Nc1ccc(C(=O)O)cc1 | > 200 µM (inactive) | –
46 | O=c1ccc2c(-c3ccccc3)c3ccc(O)cc3oc-2c1 | > 200 µM (inactive) | –
47 | Cc1ccc(S(=O)(=O)NN=C2C3CC4CC(C3)CC2C4)cc1[N+](=O)[O-] | > 200 µM (inactive) | –
48 | CC1CCN(C(=O)C2CCC(C)(C(=O)O)C2(C)C)CC1 (stereo not given) | > 200 µM (inactive) | –

Row | SMILES | IC50 | pIC50
49 | CSc1n[nH]c(NCc2ccc(Cl)cc2)n1 | > 200 µM (inactive) | –
50 | O=C(O)c1cc(O)c2c(c1)C(=O)c1cccc(O)c1C2=O | inactive | –
51 | Cc1ccc(NC(=O)CCC(=O)NNC(=O)c2ccccc2[N+](=O)[O-])c(C)c1 | > 200 µM (inactive) | –
52 | S=c1[nH]nc(Cc2cccc3ccccc23)n1-c1ccccc1 | > 200 µM (inactive) | –
53 | Cc1ccc2c(c1)N(CC(=O)NCCc1ccc(Cl)cc1)C(=O)c1cccnc1O2 | > 200 µM (inactive) | –
54 | Nc1ccc(O)c2c1C(=O)c1ccccc1C2=O | – | 5.24
55 | COc1ccc(CNC(=S)Nc2cc(OC)ccc2OC)cc1 | > 200 µM (inactive) | –
56 | CCCCn1c(NC(=O)c2ccc(Br)o2)c(C(=O)OCC)c2nc3ccccc3nc21 | > 200 µM (inactive) | –
57 | CCOC(=O)c1c(C)[nH]c2c1-c1ccccc1C(=O)C2=O | > 200 µM (inactive) | –
58 | COCCn1nnnc1C(c1cc2ccc(OC)cc2[nH]c1=O)N1CCc2ccccc2C1 (stereo not given) | > 200 µM (inactive) | –
59 | COc1cc(NS(=O)(=O)c2ccc(NC(=S)NC(=O)/C=C/c3ccc(F)cc3)cc2)ncn1 | > 200 µM (inactive) | –
60 | CC1CCCCC1NC(=O)CCS(=O)(=O)c1ccc2c(c1)NC(=O)CO2 (stereo not given) | > 200 µM (inactive) | –
61 | O=S(=O)(O)c1cc(O)c2c(O)c(N=Nc3cc(Cl)ccc3O)c(S(=O)(=O)O)cc2c1 | > 200 µM (inactive) | –
62 | CC1(C)OC(C)(C)/C(=C/Nc2ccc(O)cc2)C1=O | > 200 µM (inactive) | –
63 | O=C(N/N=C/c1ccc(OC(=O)c2cccs2)cc1)c1cccc(F)c1 | > 200 µM (inactive) | –
64 | C[N+]1(CCNC(=O)/C=N/O)CCCCC1 | > 200 µM (inactive) | –
65 | Nc1c(C(=O)NCc2ccco2)c2nc3ccccc3nc2n1CCc1ccccc1 | > 200 µM (inactive) | –
66 | Cc1ccn2c(C(=O)CSc3ccc(Cl)cc3Cl)c(C)nc2c1 | > 200 µM (inactive) | –
67 | O=C(CC1Nc2cccc3cccc(c23)NC1=O)Nc1ccccc1 (stereo not given) | > 200 µM (inactive) | –
68 | COc1cc(CC(=O)NCc2ccc3c(c2)OCO3)cc(OC)c1OC | > 200 µM (inactive) | –
69 | Cc1cc2cc(CNC(=O)c3ccc(S(=O)(=O)N4CCCCC4)cc3)ccc2n1C | inactive | –
70 | CCN(CC)c1ccc(/C=c2\sc3nnc(-c4ccccc4Cl)n3c2=O)cc1 | > 200 µM (inactive) | –
71 | CN(C)c1cccc2c(C=C(C#N)C#N)ccc(N(C)C)c12 | > 200 µM (inactive) | –
72 | CCNc1ccc(C(=O)O)cc1N | inactive | –

Row | SMILES | IC50 | pIC50
73 | COC(=O)c1cccc(Cn2c(Cl)c(/C=N/NC(=O)c3ccccc3Cl)sc2=O)c1 | > 200 µM (inactive) | –
74 | O=S(=O)(Nc1c(S(=O)(=O)c2ccccc2)c2nc3ccccc3nc2n1C1CCCCC1)c1ccccc1 | > 200 µM (inactive) | –
75 | COc1ccc(-c2cnnn2-c2ccc(N)cc2)cc1OC | > 200 µM (inactive) | –
76 | CC(C)(C)c1ccc(C(CC(=O)O)NC(=O)Cc2ccc(F)cc2)cc1 (stereo not given) | > 200 µM (inactive) | –
77 | Oc1c(Br)cc(Br)cc1CNc1ccc(F)cc1 | > 200 µM (inactive) | –
78 | N#C/C(=C\c1c(F)cccc1Cl)C(=O)NC1CC1 | > 200 µM (inactive) | –
79 | CCCCNc1nnc(Cc2ccc(Cl)cc2)c(=O)[nH]1 | > 200 µM (inactive) | –
80 | O=C(Nc1nc(-c2cc3ccccc3oc2=O)cs1)c1ccco1 | > 200 µM (inactive) | –
81 | CCCCN(Cc1cc2cc(OC)ccc2[nH]c1=O)S(=O)(=O)c1ccc(C)cc1 | > 200 µM (inactive) | –
82 | COC(=O)c1cc(NC(=O)c2ccccc2)c(=O)oc1/C=C/Nc1ccc(Oc2ccccc2)cc1 | > 200 µM (inactive) | –
83 | CN(C)CCOC(=O)CCc1ccccc1 | > 200 µM (inactive) | –
84 | O=C(/C=C/c1ccco1)OCc1nnc(-c2ccccc2)o1 | > 200 µM (inactive) | –
85 | CC(C)COc1ccc(-c2nn(-c3ccccc3)cc2/C=C2/SC(=S)N(CC(=O)O)C2=O)cc1 | > 200 µM (inactive) | –
86 | O=S(=O)(Nc1nc2ccccc2nc1Nc1ccc(N2CCOCC2)cc1)c1cc(Cl)ccc1Cl | > 200 µM (inactive) | –
87 | CCOc1cc(/C=C(\C#N)C(=O)Nc2ccccc2C(=O)O)ccc1OC(=O)c1ccc(C)cc1 | > 200 µM (inactive) | –
88 | O=C(O)CCCNc1cc(N2CCN(C(=O)c3ccco3)CC2)c2noc3c2c1C(=O)c1ccccc1-3 | – | 4.96
89 | CCC(C)[C@H](NC(=O)N1CCn2c1nc1ccccc12)C(=O)NCCc1ccc(OC)c(OC)c1 (stereo not given in full) | > 200 µM (inactive) | –
90 | O=c1[nH]c2ccc(S(=O)(=O)N3CCCCC3)cc2s1 | > 200 µM (inactive) | –
91 | O=C(Nc1ccc(Oc2ccsc2C(=O)O)cc1)c1ccccc1F | > 200 µM (inactive) | –
92 | O=C(O)c1ccc(/C=N/NC(=O)c2ccc(CN3c4cccc5cccc(c45)S3(=O)=O)cc2)cc1 | > 200 µM (inactive) | –
93 | CCOC(=O)C1=C(C)N=c2s/c(=C\c3ccc(OCC(=O)O)cc3)c(=O)n2C1c1ccc(Cl)cc1 (stereo not given) | > 200 µM (inactive) | –
94 | CCc1nnc(NS(=O)(=O)c2ccc(NC(=S)NC(=O)/C=C/c3ccc(C(C)C)cc3)cc2)s1 | > 200 µM (inactive) | –
95 | COCCCNc1c2c3c(cccc3[nH]c1=O)C(=O)c1ccccc1-2 | > 200 µM (inactive) | –
